Among the data in PubChem BioAssay (NCI) are TGI values, retold here.

SMILES strings stand for the structures.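 In this assay, cells in 96-well plates receive the compound at five concentrations for 48 hours. Endpoints are linearly interpolated between the surrounding concentrations. Definition used: TGI = concentration required for complete inhibition of growth.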 Where a SMILES comes first, the peptide text is derived from it. [ ]: non-standard residue; d: D form. The star is where a group is joined. ξ: configuration not given here. Propanoyl(3-(4-MeO-Ph)) = COc1ccc(CCC(=O)*)cc1; Thr(3ξ) = CC(O)[C@H](N)C(=O)O; dNMeL = CN[C@H](CC(C)C)C(=O)O; ξLac = CC(O)C(=O)O

Test systems include K-562 leukemia; OVCAR-5 ovarian; OVCAR-3 ovarian; BT-549 breast; UACC-62 melanoma; HOP-62 NSCLC; A549 NSCLC; HOP-92 NSCLC; SF-539 CNS; HL-60(TB) leukemia.
What all share (assay): DTP human tumour cell line panel, 48 h

As to `O=C1c2ccccc2-c2nnc(-c3ccc(Cl)cc3)cc21`, the TGI with K-562 leukemia, with OVCAR-5 ovarian, with OVCAR-3 ovarian, in the assay on BT-549 breast, in the assay on UACC-62 melanoma and in the assay with HOP-62 NSCLC was greater than 10 µM throughout. Moreover, the TGI with A549 NSCLC, in the assay on HOP-92 NSCLC, in the assay with SF-539 CNS and in the assay on HL-60(TB) leukemia was greater than 10 µM throughout.

Turning to `O=C(CCc1ccc(O)c(O)c1)NCCc1ccc(O)c(O)c1`, the TGI in the assay with K-562 leukemia, with OVCAR-5 ovarian, with OVCAR-3 ovarian, in the assay with BT-549 breast, in the assay on UACC-62 melanoma and in the assay on HOP-62 NSCLC was greater than 100 µM each time. Further, the TGI in the assay with A549 NSCLC, in the assay with HOP-92 NSCLC, in the assay on SF-539 CNS and in the assay with HL-60(TB) leukemia was greater than 100 µM in each case.

Consider `CC1=Nc2c(C#N)ncn2N=C(C)C1`, for which the TGI in the assay with K-562 leukemia, with OVCAR-5 ovarian, in the assay with OVCAR-3 ovarian, with BT-549 breast, in the assay on UACC-62 melanoma and in the assay with HOP-62 NSCLC was greater than 100 µM throughout. For the same molecule, the TGI in the assay with A549 NSCLC, with HOP-92 NSCLC, in the assay on SF-539 CNS and with HL-60(TB) leukemia was greater than 100 µM in each case.

`Cc1cc2c(cc1-c1cc3c(cc1C)C(C(C)C)=C(O)C(=O)/C3=C\Nc1c(C)n(C)n(-c3ccccc3)c1=O)/C(=C/Nc1c(C)n(C)n(-c3ccccc3)c1=O)C(=O)C(O)=C2C(C)C`: the TGI in the assay with K-562 leukemia, in the assay with OVCAR-5 ovarian, with OVCAR-3 ovarian, in the assay with BT-549 breast, in the assay on UACC-62 melanoma and in the assay on HOP-62 NSCLC was greater than 100 µM each time. In addition, the TGI in the assay with A549 NSCLC, with HOP-92 NSCLC, with SF-539 CNS and in the assay on HL-60(TB) leukemia was greater than 100 µM each time.

Consider `COc1ccc(N2C(N)=C(C#N)C(C#N)(C#N)C2c2cccc([N+](=O)[O-])c2)cc1` (stereo not given), for which the TGI was found to be 14.7 µM in the assay with K-562 leukemia; 34.5 µM in the assay on OVCAR-5 ovarian; 30.1 µM with OVCAR-3 ovarian; 32.3 µM in the assay with BT-549 breast; 30.1 µM in the assay on UACC-62 melanoma; 30.9 µM with HOP-62 NSCLC. For the same molecule, the TGI in the assay with A549 NSCLC was 34.2 µM; in the assay with HOP-92 NSCLC, 26.2 µM; with SF-539 CNS, 28.9 µM; in the assay on HL-60(TB) leukemia, greater than 25.7 µM.

In the case of `COc1ccc(-c2nnc(CCCCCCCCc3nnc(-c4ccc(OC)cc4)n3N)n2N)cc1`, the TGI is greater than 100 µM in the assay with K-562 leukemia; greater than 100 µM with OVCAR-5 ovarian; greater than 100 µM with OVCAR-3 ovarian; greater than 100 µM in the assay with BT-549 breast; greater than 100 µM with UACC-62 melanoma; 65.8 µM in the assay on HOP-62 NSCLC. The concentration for total growth inhibition (TGI) is greater than 100 µM in the assay on A549 NSCLC, greater than 69.1 µM in the assay on HOP-92 NSCLC, greater than 100 µM with SF-539 CNS and greater than 100 µM in the assay with HL-60(TB) leukemia.

Regarding `COC(=O)C(Cc1ccccc1)NC(=O)c1ccc(CNC(=S)NCc2cccc(CNC(=S)NCc3ccccc3)c2)cc1` (stereo not given), the TGI with K-562 leukemia, in the assay with OVCAR-5 ovarian, in the assay on OVCAR-3 ovarian, in the assay on BT-549 breast, in the assay on UACC-62 melanoma and in the assay on HOP-62 NSCLC was greater than 62.5 µM in each case. The TGI in the assay with A549 NSCLC, in the assay on HOP-92 NSCLC, with SF-539 CNS and in the assay with HL-60(TB) leukemia was greater than 62.5 µM each time.

Turning to `CCCC(=O)Nc1cc(/C=C/C(=O)N2CC(CCl)c3c2cc([N+](=O)[O-])c2ccccc32)n(C)c1` (stereo not given), the TGI in the assay on K-562 leukemia, in the assay on OVCAR-5 ovarian, in the assay on OVCAR-3 ovarian, with BT-549 breast, with UACC-62 melanoma and with HOP-62 NSCLC was greater than 100 µM in each case. The TGI in the assay on A549 NSCLC is greater than 100 µM; in the assay with HOP-92 NSCLC, greater than 100 µM; in the assay on SF-539 CNS, greater than 100 µM; with HL-60(TB) leukemia, 27.2 µM.

Take `CCOc1cc2c(cc1O)CC[C@@H]1[C@@H]2CC[C@]2(C)C(OS(=O)OC3CC[C@@H]4[C@H]5CCc6cc(O)c(OCC)cc6[C@@H]5CC[C@@]34C)CC[C@@H]12` (stereo not given in full): the TGI in the assay with K-562 leukemia was greater than 55.6 µM; in the assay with OVCAR-5 ovarian it was greater than 57.8 µM; with OVCAR-3 ovarian, 0.813 µM; in the assay with BT-549 breast, 13.6 µM; in the assay with UACC-62 melanoma, 30.9 µM; with HOP-62 NSCLC, greater than 27 µM. For the same molecule, the TGI is 11.3 µM in the assay on A549 NSCLC, greater than 100 µM in the assay with HOP-92 NSCLC, 1.85 µM in the assay on SF-539 CNS and 0.929 µM in the assay with HL-60(TB) leukemia.

`CCOC(=O)Cn1nnc2cc(Nc3nc4ccccc4nc3C(=O)OCC)ccc21`: the TGI with K-562 leukemia was greater than 100 µM; with OVCAR-5 ovarian, greater than 100 µM; with OVCAR-3 ovarian it was greater than 100 µM; with BT-549 breast, greater than 100 µM; in the assay on UACC-62 melanoma, greater than 100 µM; in the assay with HOP-62 NSCLC, 79.6 µM. Further, the TGI in the assay on A549 NSCLC was greater than 100 µM; in the assay with HOP-92 NSCLC it was 50 µM; with SF-539 CNS it was 58.6 µM; with HL-60(TB) leukemia it was greater than 100 µM.

As to `Cc1[nH]c(=O)nc2nc3ccc(Cl)cc3c(NC(C)(CO)CO)c12`, the TGI in the assay with K-562 leukemia was greater than 100 µM; in the assay with OVCAR-5 ovarian, greater than 100 µM; in the assay with OVCAR-3 ovarian it was greater than 100 µM; in the assay on BT-549 breast, greater than 100 µM; in the assay on UACC-62 melanoma it was greater than 100 µM; in the assay with HOP-62 NSCLC, 61.3 µM. Further, the TGI in the assay with A549 NSCLC, in the assay on HOP-92 NSCLC, in the assay on SF-539 CNS and in the assay with HL-60(TB) leukemia was greater than 100 µM each time.

In the case of `COC(=O)[C@@H](NC(=O)[C@@H](CC(C)C)N(C)C(=O)[C@@H]1CCCN1C(=O)C(C)O)C(C)OC(=O)CCc1ccc(OC)cc1` (stereo not given in full) (H-[ξLac]P[dNMeL][Thr(3ξ)](Propanoyl(3-(4-MeO-Ph)))-OMe), the TGI in the assay on K-562 leukemia, with OVCAR-5 ovarian, with OVCAR-3 ovarian, with BT-549 breast, in the assay on UACC-62 melanoma and with HOP-62 NSCLC was greater than 100 µM each time. The TGI in the assay with A549 NSCLC, in the assay on HOP-92 NSCLC, in the assay with SF-539 CNS and in the assay with HL-60(TB) leukemia was greater than 100 µM throughout.
